In patent EP0060077A1, “Beta-lactam antibiotics, their preparation and use” (BEECHAM GROUP PLC, priority 1981, dated 1982):
Read-outs that look alike come from different tables or passages of the source.

What was measured:
[1] = Tissue stability in mouse kidney homogenate; type: in vitro ADME; details: 2% mouse kidney homogenate mixed with equal volume of 200 µg/ml antibiotic, 37°C, HPLC; relative to MM13902 as standard (1.0)
Experimental: (§3) A preparation of 2% mouse kidney homogenate was mixed with equal volumes of a 200 µg/ml solution of the antibiotic to be tested. The stability of the antibiotic at 37°C was studied by removal of aliquots and subjecting them to high pressure liquid chromatographic analysis. The values are given in figures relative to that obtained for MM13902 which is taken as a standard (1.0). Values greater than 1.0 reflect the fold increase in stability relative to MM13902.

[2] = Tissue stability in human kidney homogenate (comparable test); type: in vitro ADME; details: relative to MM13902 as standard (1.0)
Experimental: as §3

E. coli ESS = assay: MIC (Broth); type: cell-based; details: Escherichia coli
Excerpt: (§1) MIC DATA (Broth) For sodium (5RS,6RS)-3-[(Z)-2-carba- moylethenylthio)-4,4-dimethyl-6-[(1SR)-1-hydroxyethyl]-7-oxo-l-azabicyclo[3.2.0]hept-2-en-2-carboxylate (32)
(§2) MIC DATA (Broth) for sodium (5RS,6RS)-4,4-dimethyl-6- [(1SR)-1-hydroxyethyl]-3-(pyrimidin-2-ylsulphinyl)-7-oxo-1-azabicyclo[3.2.0]hept-2-ene-Z-carboxylate (27)

K. aerogenes A = assay: MIC (Broth); type: cell-based; details: Klebsiella aerogenes
Excerpt: as §1, §2

B. subtilis A = assay: MIC (Broth); type: cell-based; details: Bacillus subtilis
Excerpt: as §1, §2

C. freundii E8 = assay: MIC (Broth); type: cell-based; details: Citrobacter freundii
Excerpt: as §1, §2

S. typhimurium CT10 = assay: MIC (Broth); type: cell-based; details: Salmonella enterica
Excerpt: as §1, §2

P. rettgeri Wm16 = assay: MIC (Broth); type: cell-based; details: Providencia rettgeri
Excerpt: as §1, §2

P. vulgaris W091 = assay: MIC (Broth); type: cell-based; details: Proteus vulgaris
Excerpt: as §1, §2

S. aureus Oxford = assay: MIC (Broth); type: cell-based; details: Staphylococcus aureus
Excerpt: as §1, §2

P. mirabilis 977 = assay: MIC (Broth); type: cell-based; details: Proteus mirabilis
Excerpt: as §1, §2

S. aureus 1517 = assay: MIC (Broth); type: cell-based; details: Staphylococcus aureus
Excerpt: as §1, §2

S. aureus Russell = assay: MIC (Broth); type: cell-based; details: Staphylococcus aureus
Excerpt: as §1, §2

S. sonnei MB11 1967 = assay: MIC (Broth); type: cell-based; details: Shigella sonnei, MB111967
Excerpt: as §1, §2

P. morganii 1580 = assay: MIC (Broth); type: cell-based; details: Morganella morganii
Excerpt: as §1, §2

E. coli 0111 = assay: MIC (Broth); type: cell-based; details: Escherichia coli
Excerpt: as §1

K. aerogenes T767 = assay: MIC (Broth); type: cell-based; details: Klebsiella aerogenes
Excerpt: as §1

E. coli E96 = assay: MIC (Broth); type: cell-based; details: Escherichia coli
Excerpt: as §1

E. cloacae T753 = assay: MIC (Broth); type: cell-based; details: Enterobacter cloacae
Excerpt: as §1

S. pneumoniae CN 33 = assay: MIC (Broth); type: cell-based; details: Streptococcus pneumoniae, CN33
Excerpt: as §1

S. pyogenes CN10 = assay: MIC (Broth); type: cell-based; details: Streptococcus pyogenes
Excerpt: as §1

S. aureus MB9 = assay: MIC (Broth); type: cell-based; details: Staphylococcus aureus
Excerpt: as §1

E. cloacae N1 = assay: MIC (Broth); type: cell-based; details: Enterobacter cloacae
Excerpt: as §1

E. coli E8 = assay: MIC (Broth); type: cell-based; details: Escherichia coli
Excerpt: as §1

E. coli JT39 = assay: MIC (Broth); type: cell-based; details: Escherichia coli
Excerpt: as §1

K. aerogenes Ba95 = assay: MIC (Broth); type: cell-based; details: Klebsiella aerogenes
Excerpt: as §1

Serratia marcescens US32 = assay: MIC (Broth); type: cell-based
Excerpt: as §2

E. cloacae N1 [T753] = assay: MIC (Broth); type: cell-based; details: Enterobacter cloacae
Excerpt: as §2

E. coli JT39 [E96] = assay: MIC (Broth); type: cell-based; details: Escherichia coli
Excerpt: as §2

E. coli JT 2074 = assay: MIC (Broth); type: cell-based; details: Escherichia coli, JT2074
Excerpt: as §2

E. coli 0111 [E8] = assay: MIC (Broth); type: cell-based; details: Escherichia coli
Excerpt: as §2

E. coli JT410 C4 = assay: MIC (Broth); type: cell-based; details: Escherichia coli, JT410C4
Excerpt: as §2

K. aeogenes BA 9J R+ = assay: MIC (Broth); type: cell-based
Excerpt: as §2

Q: For C[C@H](O)[C@@H]1C(=O)N2C(C(=O)[O-])=C(S/C=C\C(N)=O)C(C)(C)[C@@H]12.[Na+] (racemic), which “Relative Stability” value [1] is on record?
A: 10.8

Q: What about the “Relative Stability” value [2] of the same molecule?
A: 6.9

Q: What about the MIC (E. coli ESS) of the same molecule?
A: 3.1 µg/mL

Q: And the MIC (K. aerogenes A)?
A: 6.2 µg/mL

Q: And the MIC (B. subtilis A)?
A: 1.6 µg/mL

Q: What about the MIC (C. freundii E8; E8) of the same molecule?
A: 25 µg/mL

Q: And the MIC (S. typhimurium CT10; TYPHIMURIUM)?
A: 50 µg/mL

Q: And the MIC (P. rettgeri Wm16; WM16)?
A: 25 µg/mL

Q: And the MIC (P. vulgaris W091; W091)?
A: 25 µg/mL

Q: And the MIC (S. aureus Oxford)?
A: 6.2 µg/mL

Q: And the MIC (P. mirabilis 977; 977)?
A: 25 µg/mL

Q: What about the MIC (S. aureus 1517; 1517) of the same molecule?
A: 25 µg/mL

Q: And the MIC (S. aureus Russell)?
A: 3.1 µg/mL

Q: What about the MIC (S. sonnei MB11 1967) of the same molecule?
A: 25 µg/mL

Q: And the MIC (P. morganii 1580; 1580)?
A: 25 µg/mL

Q: What about the MIC (E. coli 0111) of the same molecule?
A: 50 µg/mL

Q: And the MIC (K. aerogenes T767)?
A: 50 µg/mL

Q: And the MIC (E. coli E96)?
A: 50 µg/mL

Q: And the MIC (E. cloacae T753)?
A: 100 µg/mL

Q: What about the MIC (S. pneumoniae CN 33) of the same molecule?
A: 50 µg/mL

Q: And the MIC (S. pyogenes CN10)?
A: 6.2 µg/mL

Q: What about the MIC (S. aureus MB9) of the same molecule?
A: 25 µg/mL

Q: What about the MIC (E. cloacae N1) of the same molecule?
A: 25 µg/mL

Q: And the MIC (E. coli E8)?
A: 50 µg/mL

Q: What about the MIC (E. coli JT39) of the same molecule?
A: 12.5 µg/mL

Q: And the MIC (K. aerogenes Ba95)?
A: 50 µg/mL

Q: With C[C@H](O)[C@@H]1C(=O)N2C(C(=O)[O-])=C([S+]([O-])c3ncccn3)C(C)(C)[C@@H]12.[Na+] (mixture of isomers) [Example 22, Sodium (5RS,6RS)-4,4-dimethyl-6-((1SR)-1-hydroxyethyl]-3-(pyrimidin-2-ylsulphinyl)-7-oxo-1-azabicyclo(3.2.0]hept-2-en-2-carboxylate] as the molecule, how does the MIC (Serratia marcescens US32) read?
A: 100 µg/mL

Q: And the MIC (E. cloacae N1 [T753])?
A: 25 µg/mL

Q: And the MIC (E. coli JT39 [E96])?
A: 50 µg/mL

Q: What about the MIC (E. coli JT 2074) of the same molecule?
A: 25 µg/mL

Q: What about the MIC (E. coli 0111 [E8]) of the same molecule?
A: 25 µg/mL

Q: And the MIC (E. coli JT410 C4)?
A: 25 µg/mL

Q: What about the MIC (K. aeogenes BA 9J R+) of the same molecule?
A: 25 µg/mL

Q: And the MIC (E. coli ESS; Broth, E. coli ESS, read-out: MIC)?
A: 1.6 µg/mL

Q: And the MIC (K. aerogenes A; Broth, K. aerogenes A, read-out: MIC)?
A: 50 µg/mL

Q: And the MIC (B. subtilis A; Broth, B. subtilis A, read-out: MIC)?
A: 0.8 µg/mL

Q: What about the MIC (C. freundii E8; Broth, C. freundii E8, read-out: MIC) of the same molecule?
A: 25 µg/mL

Q: What about the MIC (S. typhimurium CT10; Broth, S. typhimurium CT10, read-out: MIC) of the same molecule?
A: 12.5 µg/mL

Q: What about the MIC (P. rettgeri Wm16; Broth, P. rettgeri Wm16, read-out: MIC) of the same molecule?
A: 25 µg/mL

Q: And the MIC (P. vulgaris W091; Broth, P. vulgaris W091, read-out: MIC)?
A: 6.2 µg/mL

Q: And the MIC (S. aureus Oxford; Broth, S. aureus Oxford, read-out: MIC)?
A: 0.8 µg/mL

Q: And the MIC (P. mirabilis 977; Broth, P. mirabilis 977, read-out: MIC)?
A: 25 µg/mL

Q: What about the MIC (S. aureus 1517; Broth, S. aureus 1517, read-out: MIC) of the same molecule?
A: 25 µg/mL

Q: And the MIC (S. aureus Russell; Broth, S. aureus Russell, read-out: MIC)?
A: 1.6 µg/mL

Q: What about the MIC (S. sonnei MB11 1967; Broth, S. sonnei MB11 1967, read-out: MIC) of the same molecule?
A: 50 µg/mL

Q: What about the MIC (P. morganii 1580; Broth, P. morganii 1580, read-out: MIC) of the same molecule?
A: 25 µg/mL

Q: What does the source list for CC(=O)N/C=C/SC1=C(C(=O)O)N2C(=O)[C@@H]([C@H](C)OS(=O)(=O)O)[C@H]2C1 [MM13902, reference compound]?
A: Relative Stability [1]: 1.4; Relative Stability [2]: 1.1
